Laboratory results: article PMC3356383, “Efficacious Intermittent Dosing of a Novel JAK2 Inhibitor in Mouse Models of Polycythemia Vera” (PLoS ONE, 2012)
Marks after values point to notes of the source that are not given here.

Tests used:
ACK1 = experiment: Kinase profiling (Millipore); format: biochemical; details: IC50s measured at ATP Km, fold increase relative to JAK2
Description: (§1) Kinase profiling was conducted by Millipore (Billerica, MA).
(§2) Supplementary file pone.0037207.s003.doc: Table S1 Recombinant Kinase Selectivity Profile of MRLB-11055. IC50s measured at ATP Km, and fold increase relative to JAK2 is reported. (DOC) Click here for additional data file.

ARK5 = experiment: Kinase profiling (Millipore); format: biochemical; details: IC50s measured at ATP Km, fold increase relative to JAK2
Description: as §1, §2

Arg = experiment: Kinase profiling (Millipore); format: biochemical; details: IC50s measured at ATP Km, fold increase relative to JAK2
Description: as §1, §2

BTK = experiment: Kinase profiling (Millipore); format: biochemical; details: IC50s measured at ATP Km, fold increase relative to JAK2
Description: as §1, §2

Bmx = experiment: Kinase profiling (Millipore); format: biochemical; details: IC50s measured at ATP Km, fold increase relative to JAK2
Description: as §1, §2

CaMKIIγ = experiment: Kinase profiling (Millipore); format: biochemical; details: IC50s measured at ATP Km, fold increase relative to JAK2
Description: as §1, §2

CaMKIIδ = experiment: Kinase profiling (Millipore); format: biochemical; details: IC50s measured at ATP Km, fold increase relative to JAK2
Description: as §1, §2

Fgr = experiment: Kinase profiling (Millipore); format: biochemical; details: IC50s measured at ATP Km, fold increase relative to JAK2
Description: as §1, §2

Flt3 = experiment: Kinase profiling (Millipore); format: biochemical; details: IC50s measured at ATP Km, fold increase relative to JAK2
Description: as §1, §2

Fms = experiment: Kinase profiling (Millipore); format: biochemical; details: IC50s measured at ATP Km, fold increase relative to JAK2
Description: as §1, §2

Fyn = experiment: Kinase profiling (Millipore); format: biochemical; details: IC50s measured at ATP Km, fold increase relative to JAK2
Description: as §1, §2

Hck = experiment: Kinase profiling (Millipore); format: biochemical; details: IC50s measured at ATP Km, fold increase relative to JAK2
Description: as §1, §2

Lck = experiment: Kinase profiling (Millipore); format: biochemical; details: IC50s measured at ATP Km, fold increase relative to JAK2
Description: as §1, §2

Lyn = experiment: Kinase profiling (Millipore); format: biochemical; details: IC50s measured at ATP Km, fold increase relative to JAK2
Description: as §1, §2

MLK1 = experiment: Kinase profiling (Millipore); format: biochemical; details: IC50s measured at ATP Km, fold increase relative to JAK2
Description: as §1, §2

PRK2 = experiment: Kinase profiling (Millipore); format: biochemical; details: IC50s measured at ATP Km, fold increase relative to JAK2
Description: as §1, §2

PTK5 = experiment: Kinase profiling (Millipore); format: biochemical; details: IC50s measured at ATP Km, fold increase relative to JAK2
Description: as §1, §2

Ret = experiment: Kinase profiling (Millipore); format: biochemical; details: IC50s measured at ATP Km, fold increase relative to JAK2
Description: as §1, §2

TrkA = experiment: Kinase profiling (Millipore); format: biochemical; details: IC50s measured at ATP Km, fold increase relative to JAK2
Description: as §1, §2

TrkB = experiment: Kinase profiling (Millipore); format: biochemical; details: IC50s measured at ATP Km, fold increase relative to JAK2
Description: as §1, §2

Yes = experiment: Kinase profiling (Millipore); format: biochemical; details: IC50s measured at ATP Km, fold increase relative to JAK2
Description: as §1, §2

cSRC = experiment: Kinase profiling (Millipore); format: biochemical; details: IC50s measured at ATP Km, fold increase relative to JAK2
Description: as §1, §2

pSTAT5 = experiment: Acute PK/PD: pSTAT5 in peripheral blood of darbepoetin-stimulated mice; format: in vivo, C57BL/6 mice; details: Mus musculus
Description: C57BL/6 mice (Charles River Laboratories, Wilmington, MA) aged 4–6 weeks were dosed with MRLB-11055 in vehicle (10%v/v polysorbate 80) or with vehicle alone. All dosing was done by oral gavage (10 ml/kg body weight/day). Blood sampling and measurement of pSTAT5 in the blood of darbepoetin-stimulated mice were measured as described previously. The level of MRLB-11055 in the blood of animals was measured by diluting blood samples (10 uL) with citrate buffer (30 uL) and precipitating with acetonitrile (200 uL) containing a structural analog as internal standard. Precipitated samples were filtered, water (200 uL) was added and the sample injected onto a C18 column (Waters Atlantis T3, 2.1 mm x 30 mm). Electrospray ionization with multiple reaction monitoring was used for MS/MS detection.

[1] = test system: darbepoetin-induced polycythemia and splenomegaly; experiment: Darbepoetin-induced model of polycythemia; format: in vivo, C57BL/6 mice; details: 7 days
Description: C57BL/6 mice (Charles River Laboratories, Wilmington, MA) aged 4–6 weeks were dosed with MRLB-11055 in vehicle (10%v/v polysorbate 80) or with vehicle alone. All dosing was done by oral gavage (10 ml/kg body weight/day). Inhibition of darbepoetin-induced polycythemia and splenomegaly by MRLB-11055 was measured as described previously.

thymus cell populations = experiment: Cell populations in thymus of normal mice; format: in vivo; details: 54 mpk
Description: Cells were stained in PBS, 0.5% BSA with antibodies for 15 min on ice. Stained cells were acquired on a 4-laser LSR-II (BD Biosciences) and data analyzed using FlowJo software (Treestar). Dead cells were labeled with the blue fluorescent LIVE/DEAD reactive dye (Invitrogen) and excluded from the analysis.
Monoclonal antibodies (anti-mouse): CD3, CD4, CD5, CD8, CD11b, CD19, CD21/35, CD23, CD25, CD43, CD44, CD49b, CD69, CD71, CD93, CD117, B220, GR-1, IgD, NK1.1, NKG2A/C/E, NKG2D, Ter119 were purchased from BD Biosciences; CD4, CD8, CD49b, CD62L, TCRβ, TCRγδ from eBioscience; GR-1 from Invitrogen; CD43 from Miltenyi Biotec. Goat anti-mouse IgM-FITC, (μ chain specific) from Jackson Immuno Research.
JAK2 and its family members JAK1 and JAK3 are known to signal downstream of cytokines that play essential roles in the development of lymphoid cell populations. To examine more thoroughly the effects of JAK2 inhibition on lymphoid cells, we analyzed wild-type (C57BL/6) mice treated with 54 mpk MRLB-11055 for 3 days, 6 days or up to 5 cycles of 3 days (“on”) followed by a 4 day holiday (“off”).
Supplementary file pone.0037207.s007.doc: Table S5 Effect of MRLB-11055 on Cell Populations in Thymus of Normal Mice. Cell counts measured by Advia. Cycles refer to 3 days of treatment followed by a 4 day holiday. *p<0.05 in Student T test when comparing vehicle 5 cycle with treatment 5 cycle and vehicle 2 cycle with treatment 2 cycle, resp. (DOC) Click here for additional data file.

[2] = 2 cycles (3 days treatment, 4 day holiday)
[3] = 5 cycles (3 days treatment, 4 day holiday)

With NC(=O)c1cnc(N[C@H](C2CC2)C(F)(F)F)c2c1[nH]c1cc(-c3cnc(N)nc3)ccc12 [MRLB-11055] the “Fold-Shift /JAK2, ACK1” value (ACK1) was 2 fold, the “Fold-Shift /JAK2, ARK5” value (ARK5) was 6 fold and the “Fold-Shift /JAK2, Arg” value (Arg) was 17 fold. For the same molecule, the “Fold-Shift /JAK2, BTK” value (BTK) was 7 fold, the “Fold-Shift /JAK2, Bmx” value (Bmx) was 4 fold and the “Fold-Shift /JAK2, CaMKIIγ” value (CaMKIIγ) was 11 fold. The “Fold-Shift /JAK2, CaMKIIδ” value (CaMKIIδ) was 10 fold, the “Fold-Shift /JAK2, Fgr” value (Fgr) was 5 fold and the “Fold-Shift /JAK2, Flt3” value (Flt3) was 3 fold. The “Fold-Shift /JAK2, Fms” value (Fms) was 2 fold, the “Fold-Shift /JAK2, Fyn” value (Fyn) was 2 fold and the “Fold-Shift /JAK2, Hck” value (Hck) was 3 fold. For the same molecule, the “Fold-Shift /JAK2, Lck” value (Lck) was 5 fold, the “Fold-Shift /JAK2, Lyn” value (Lyn) was 4 fold and the “Fold-Shift /JAK2, MLK1” value (MLK1) was 18 fold. For the same molecule, the “Fold-Shift /JAK2, PRK2” value (PRK2) was 13 fold, the “Fold-Shift /JAK2, PTK5” value (PTK5) was 8 fold and the “Fold-Shift /JAK2, Ret” value (Ret) was 3 fold. The “Fold-Shift /JAK2, TrkA” value (TrkA) was 1 fold, the “Fold-Shift /JAK2, TrkB” value (TrkB) was 8 fold and the “Fold-Shift /JAK2, Yes” value (Yes) was 7 fold. For the same molecule, the “Fold-Shift /JAK2, cSRC” value (cSRC) was 1 fold, the inhibition at 36 mg/kg (pSTAT5; 36 mg/kg oral, maintained over 12 hours) was greater than 90% and the IC50 (pSTAT5; oral dosing, mice simultaneously injected with darbepoetin, read-out: IC50 for inhibition of pSTAT5 in peripheral blood in vivo) was 1.2 µM. For the same molecule, the “Effect on WBC” value ([1]; 5, 15, 25 and 40 mpk once daily) was “dose-dependent trend towards WBC reduction, that did not reach statistical significance”, the “Efficacy, prevention of elevated hematocrit (Hct)” value ([1]; 40 mpk orally once daily) was 76% and the “Efficacy, prevention of elevated spleen weight (SPL)” value ([1]; 40 mpk orally once daily) was 87%. The “Thymus CD4+CD8+” value (thymus cell populations; [2]) was 91.3 ± 0.3%, the “Thymus CD4-CD8-” value (thymus cell populations; [2]) was 3.0 ± 0.8% and the “Thymus Cell Count” value (thymus cell populations; [2]) was 75.4 ± 26.5 x 10^6. The “Thymus Single Positive CD4+” value (thymus cell populations; [2]) was 3.9 ± 0.8* %, the “Thymus Single Positive CD8+” value (thymus cell populations; [2]) was 0.55 ± 0.03* % and the “Thymus CD4+CD8+” value (thymus cell populations; [3]) was 90.7 ± 1.5%. For the same molecule, the “Thymus CD4-CD8-” value (thymus cell populations; [3]) was 2.1 ± 0.6%, the “Thymus Cell Count” value (thymus cell populations; [3]) was 130.3 ± 27.1 x 10^6 and the “Thymus Single Positive CD4+” value (thymus cell populations; [3]) was 5.0 ± 1.1%. For the same molecule, the “Thymus Single Positive CD8+” value (thymus cell populations; [3]) was 1.4 ± 0.2* %, the “Thymus CD4+CD8+” value (thymus cell populations; 3 days) was 85.6 ± 2.4* % and the “Thymus CD4-CD8-” value (thymus cell populations; 3 days) was 3.5 ± 0.6%. The “Thymus Cell Count” value (thymus cell populations; 3 days) was 37.3 ± 13.4* x 10^6, the “Thymus Single Positive CD4+” value (thymus cell populations; 3 days) was 7.1 ± 1.3% and the “Thymus Single Positive CD8+” value (thymus cell populations; 3 days) was 2.7 ± 0.8%. The “Thymus CD4+CD8+” value (thymus cell populations; 6 days) was 87.9 ± 5.0%, the “Thymus CD4-CD8-” value (thymus cell populations; 6 days) was 2.4 ± 0.9% and the “Thymus Cell Count” value (thymus cell populations; 6 days) was 37.3 ± 12.1* x 10^6. For the same molecule, the “Thymus Single Positive CD4+” value (thymus cell populations; 6 days) was 5.8 ± 2.7% and the “Thymus Single Positive CD8+” value (thymus cell populations; 6 days) was 2.7 ± 1.1%.
